From patent US10457654B2 (GENENTECH, INC., priority 2017, dated 2019) come the findings set out here.

Counter-ions that a name gives are not always drawn.

The target in experiment [1] is T1, hNav1.7 (Homo sapiens (Human), UniProt Q15858). The experiment is described as follows: Patch voltage clamp electrophysiology assay (EP), Syncropatch 384PE, CHO cells expressing Nav1.7. The experiment is classed as cell-based. The following applies: holding potential -50 mV; […] compound incubation; read-out: EP_SP hNav1.7 (Ex. 243B) IC50. As for the experimental part: Electrophysiological Assay (EP) (In Vitro Assay)
The following voltage clamp electrophysiology studies were performed on representative compounds using cells heterologously expressing Nav1.7 or Nav1.5 channels. cDNAs for Nav1.7 (NM_002977) and Nav1.5 (AC137587) were stably expressed in Chinese Hamstr Ovary (CHO) cells and CHL (Chinese Hamster Lung) cells respectively. […] Internal solution consists of (in mM): 110 […], 10 […], 20 EGTA, and 10 Hepes (pH adjusted to 7.2); and external solution contains (in mM): 60 NMDG, 80 NaCl, 4 KCl, 1 MgCl2, 2 CaCl2, 2 D-Glucose monohydrate, 10 Hepes (pH adjusted to 7.4 with NaOH).
The chip is moved into the measuring head and the instrument primes the chip with external and internal solutions. […] cells are added to the chip from a cell hotel, and a negative pressure of −50 mBar is applied to form a seal. Following treatment with seal enhancer solution and wash-off with external solution, negative pressure of −250 mbar is applied for 1 second to achieve the whole-cell configuration, followed by three washing steps in external solution. 20 μl of compounds is added to 40 μl in each well (1:3 dilution of compounds), and after mixing, 20 μl is removed so the volume is retained at 40 μl.
For voltage protocol, an holding potential of −50 mV is applied during the whole experiment. A depolarizing step is applied to −10 mV for 10 ms, followed by a hyperpolarization step to −150 mV for 20 ms to allow channel recovery from inactivation. A second depolarizing step is applied from −150 mV to −10 mV for 10 ms, where currents were measured to derive blocking effects of compounds. Inhibition is determined based on 7.5 min of compound incubation.
In general terms: Patch clamp records ionic current or voltage across a cell membrane.
Target sequence in this assay (Q15858 other isoform, or with tags, fused parts or gaps): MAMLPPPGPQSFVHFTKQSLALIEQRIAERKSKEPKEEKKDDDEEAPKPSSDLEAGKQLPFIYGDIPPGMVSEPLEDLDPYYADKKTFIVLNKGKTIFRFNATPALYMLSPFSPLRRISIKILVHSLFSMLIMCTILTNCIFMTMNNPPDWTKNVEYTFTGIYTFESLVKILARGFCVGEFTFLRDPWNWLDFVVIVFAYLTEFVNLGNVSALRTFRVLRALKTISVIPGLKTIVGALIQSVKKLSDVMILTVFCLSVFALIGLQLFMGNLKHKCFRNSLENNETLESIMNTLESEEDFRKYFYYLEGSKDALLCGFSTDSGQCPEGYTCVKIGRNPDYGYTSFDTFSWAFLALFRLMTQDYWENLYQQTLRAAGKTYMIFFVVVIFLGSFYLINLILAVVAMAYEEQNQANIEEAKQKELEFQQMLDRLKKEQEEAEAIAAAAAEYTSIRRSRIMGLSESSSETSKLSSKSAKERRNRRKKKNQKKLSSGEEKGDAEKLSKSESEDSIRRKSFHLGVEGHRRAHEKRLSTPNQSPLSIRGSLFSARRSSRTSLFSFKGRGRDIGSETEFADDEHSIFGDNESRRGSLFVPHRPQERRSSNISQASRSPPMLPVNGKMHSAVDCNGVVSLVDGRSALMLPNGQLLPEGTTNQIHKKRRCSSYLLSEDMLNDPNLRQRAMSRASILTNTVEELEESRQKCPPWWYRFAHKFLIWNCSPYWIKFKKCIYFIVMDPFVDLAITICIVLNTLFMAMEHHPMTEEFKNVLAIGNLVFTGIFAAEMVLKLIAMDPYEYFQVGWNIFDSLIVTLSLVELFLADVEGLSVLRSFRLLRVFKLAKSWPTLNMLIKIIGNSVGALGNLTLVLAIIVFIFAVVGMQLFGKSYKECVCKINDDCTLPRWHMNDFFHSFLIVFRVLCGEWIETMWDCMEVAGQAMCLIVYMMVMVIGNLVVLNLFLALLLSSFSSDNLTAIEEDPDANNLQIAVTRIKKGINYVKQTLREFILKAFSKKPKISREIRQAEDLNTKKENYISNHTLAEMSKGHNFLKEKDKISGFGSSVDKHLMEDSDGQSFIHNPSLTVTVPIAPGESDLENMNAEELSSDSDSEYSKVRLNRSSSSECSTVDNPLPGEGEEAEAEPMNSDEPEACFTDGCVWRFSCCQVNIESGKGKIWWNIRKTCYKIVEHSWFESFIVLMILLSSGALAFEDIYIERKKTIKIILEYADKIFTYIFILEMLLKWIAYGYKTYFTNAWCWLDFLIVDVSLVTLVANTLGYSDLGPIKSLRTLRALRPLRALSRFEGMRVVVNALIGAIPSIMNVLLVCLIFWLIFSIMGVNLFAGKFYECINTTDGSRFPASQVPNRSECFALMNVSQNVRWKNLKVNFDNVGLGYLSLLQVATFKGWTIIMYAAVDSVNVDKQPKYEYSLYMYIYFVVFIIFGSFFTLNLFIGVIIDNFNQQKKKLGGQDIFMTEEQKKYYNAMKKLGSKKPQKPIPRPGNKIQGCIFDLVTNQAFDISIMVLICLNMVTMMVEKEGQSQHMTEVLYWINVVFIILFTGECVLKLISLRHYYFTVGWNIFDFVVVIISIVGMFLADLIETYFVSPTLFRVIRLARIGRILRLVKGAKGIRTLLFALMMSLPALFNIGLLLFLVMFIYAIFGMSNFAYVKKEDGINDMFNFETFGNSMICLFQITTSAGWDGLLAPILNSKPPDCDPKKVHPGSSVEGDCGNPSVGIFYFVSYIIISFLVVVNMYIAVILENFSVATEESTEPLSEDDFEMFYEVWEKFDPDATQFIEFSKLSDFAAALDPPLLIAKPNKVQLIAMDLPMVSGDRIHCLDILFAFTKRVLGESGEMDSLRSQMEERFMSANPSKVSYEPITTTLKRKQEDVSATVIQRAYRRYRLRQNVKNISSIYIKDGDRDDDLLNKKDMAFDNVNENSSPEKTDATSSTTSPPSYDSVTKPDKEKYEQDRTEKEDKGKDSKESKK

For experiment [2], the target named is T1, hNav1.7. The experiment is described as follows: Tritiated compound binding to membranes from cells expressing hNav1.7 and the β1 subunit, modified protocol (LBA, Ex. 243B). The following applies: 300 pM [3H]compound, room temperature, read-out: Nav1.7 LBA (Ex. 243B) IC50.
Target sequence in this assay (Q15858 whole entry, looked up): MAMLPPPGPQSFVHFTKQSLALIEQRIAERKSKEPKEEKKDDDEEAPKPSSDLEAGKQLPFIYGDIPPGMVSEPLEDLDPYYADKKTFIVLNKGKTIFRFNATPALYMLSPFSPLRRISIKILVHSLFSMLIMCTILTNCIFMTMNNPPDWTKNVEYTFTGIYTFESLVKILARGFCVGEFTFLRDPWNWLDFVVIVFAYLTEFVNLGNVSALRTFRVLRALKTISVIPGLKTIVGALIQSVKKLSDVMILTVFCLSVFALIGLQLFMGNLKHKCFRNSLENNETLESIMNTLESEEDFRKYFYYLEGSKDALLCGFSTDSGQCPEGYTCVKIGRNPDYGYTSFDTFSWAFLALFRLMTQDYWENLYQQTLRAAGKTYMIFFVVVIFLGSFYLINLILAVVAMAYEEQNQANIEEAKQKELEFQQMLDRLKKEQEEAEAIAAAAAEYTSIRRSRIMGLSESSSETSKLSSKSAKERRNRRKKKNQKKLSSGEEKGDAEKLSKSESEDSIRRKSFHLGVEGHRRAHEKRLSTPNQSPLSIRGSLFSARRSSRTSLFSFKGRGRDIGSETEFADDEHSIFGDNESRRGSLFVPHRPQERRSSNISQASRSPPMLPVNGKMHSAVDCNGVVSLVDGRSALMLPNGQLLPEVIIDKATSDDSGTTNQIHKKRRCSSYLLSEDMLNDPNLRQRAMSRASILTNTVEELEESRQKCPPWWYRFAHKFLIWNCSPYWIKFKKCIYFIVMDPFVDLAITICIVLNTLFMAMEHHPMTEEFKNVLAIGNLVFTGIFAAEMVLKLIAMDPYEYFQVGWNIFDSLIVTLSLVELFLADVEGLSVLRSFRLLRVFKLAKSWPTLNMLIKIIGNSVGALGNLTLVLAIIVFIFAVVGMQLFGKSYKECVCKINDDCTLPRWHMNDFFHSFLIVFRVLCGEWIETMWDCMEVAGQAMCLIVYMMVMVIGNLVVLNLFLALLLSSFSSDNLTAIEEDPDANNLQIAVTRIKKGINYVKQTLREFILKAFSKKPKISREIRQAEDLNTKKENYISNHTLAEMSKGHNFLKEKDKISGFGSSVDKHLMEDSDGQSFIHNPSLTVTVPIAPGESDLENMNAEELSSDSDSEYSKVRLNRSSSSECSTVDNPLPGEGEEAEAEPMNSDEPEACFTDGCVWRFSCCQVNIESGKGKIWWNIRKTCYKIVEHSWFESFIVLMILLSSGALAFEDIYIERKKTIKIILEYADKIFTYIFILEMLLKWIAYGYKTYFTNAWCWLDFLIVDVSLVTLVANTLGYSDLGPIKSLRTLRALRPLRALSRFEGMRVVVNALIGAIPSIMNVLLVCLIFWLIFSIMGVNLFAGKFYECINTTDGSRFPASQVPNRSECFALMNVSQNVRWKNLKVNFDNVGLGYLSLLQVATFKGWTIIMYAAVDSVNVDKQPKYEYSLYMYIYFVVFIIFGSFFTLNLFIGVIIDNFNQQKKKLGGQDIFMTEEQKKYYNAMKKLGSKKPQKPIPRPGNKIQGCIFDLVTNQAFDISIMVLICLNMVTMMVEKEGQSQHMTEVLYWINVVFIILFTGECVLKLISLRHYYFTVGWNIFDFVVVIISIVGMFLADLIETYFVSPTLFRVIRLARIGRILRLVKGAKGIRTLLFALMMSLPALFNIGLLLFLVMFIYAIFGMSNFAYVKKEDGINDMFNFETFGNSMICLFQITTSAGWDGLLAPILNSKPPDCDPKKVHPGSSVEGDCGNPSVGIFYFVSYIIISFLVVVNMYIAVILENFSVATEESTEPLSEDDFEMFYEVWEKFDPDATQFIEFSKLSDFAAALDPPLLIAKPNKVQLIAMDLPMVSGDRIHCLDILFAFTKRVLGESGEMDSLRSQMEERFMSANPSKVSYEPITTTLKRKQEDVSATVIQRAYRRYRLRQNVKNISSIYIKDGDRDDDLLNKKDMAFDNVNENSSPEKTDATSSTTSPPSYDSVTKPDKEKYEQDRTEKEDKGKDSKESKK
Target sequence in this assay (Q07699 whole entry partner, looked up): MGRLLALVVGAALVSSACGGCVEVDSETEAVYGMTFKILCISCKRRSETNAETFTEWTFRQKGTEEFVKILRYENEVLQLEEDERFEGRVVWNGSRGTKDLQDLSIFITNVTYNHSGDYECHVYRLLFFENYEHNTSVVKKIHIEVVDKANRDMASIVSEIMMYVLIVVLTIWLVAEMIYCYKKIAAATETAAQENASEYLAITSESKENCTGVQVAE

Usually IC50 stands for the concentration at which inhibition is half-maximal. `CN(C)[C@H]1C[C@@H](c2cccc(C(F)(F)F)c2)CC[C@@H]1Nc1cc(F)c(S(=O)(=O)Nc2ccncn2)cc1F` [Example 220, 4-(((1S,2S,4S)-2-(Dimethylamino)-4-(3-(trifluoromethyl)phenyl)cyclohexyl)amino)-2,5-difluoro-N-(pyrimidin-4-yl)benzenesulfonamide]: the IC50 in experiment [1] is 0.000418 µM.

In the case of `CN1CCC[C@H]1C(=O)N(C)[C@H]1CCCC[C@@H]1Nc1cc(F)c(S(=O)(=O)Nc2nccs2)cc1Cl` [Example 201, (S)—N-((1S,2S)-2-((2-chloro-5-fluoro-4-(N-(thiazol-2-yl)sulfamoyl)phenyl)amino)cyclohexyl)-N,1-dimethylpyrrolidine-2-carboxamide], the IC50 amounted to 0.0296 µM in experiment [1] and 0.308 µM in experiment [2]. Turning to `O=S(=O)(Nc1ccncn1)c1cc(Cl)c(N[C@@H]2CCCC[C@H]2N2CC3CC3C2)cc1F` (stereo partly drawn) [Example 152, 4-(((1R,2R)-2-(3-azabicyclo[3.1.0]hexan-3-yl)cyclohexyl)amino)-5-chloro-2-fluoro-N-(pyrimidin-4-yl)benzenesulfonamide], the IC50 in experiment [1] came out at 1.68 µM; in experiment [2], 2 µM. The like results for `CN(C)[C@H]1CC=CC[C@@H]1Nc1cc(F)c(S(=O)(=O)Nc2nccs2)cc1Cl` [Example 141, 5-Chloro-4-(((1S,6S)-6-(dimethylamino)cyclohex-3-en-1-yl)amino)-2-fluoro-N-(thiazol-2-yl)benzenesulfonamide formate] were, in that order, 0.0127 µM and 0.275 µM. Taken in the same sequence, the figures for `Cc1nc(NS(=O)(=O)c2cc(Cl)c(N[C@H]3CCCC[C@@H]3N(C)C)cc2F)sc1F` [Example 211, 5-Chloro-4-(((1S,2S)-2-(dimethylamino)cyclohexyl)amino)-2-fluoro-N-(5-fluoro-4-methylthiazol-2-yl)benzenesulfonamide formate] were 0.12 µM and 1.43 µM. The like results for `CC(C)CC(=O)N1CC(N(C)[C@H]2CCCC[C@@H]2Nc2cc(F)c(S(=O)(=O)Nc3nccs3)cc2Cl)C1` [Example 147, 5-Chloro-2-fluoro-4-(((1S,2S)-2-(methyl(1-(3-methylbutanoyl)azetidin-3-yl)amino)cyclohexyl)amino)-N-(thiazol-2-yl)benzenesulfonamide] were, in that order, 0.0272 µM and 0.275 µM.

On to `CN(CC1(F)CC1)[C@H]1CCCC[C@@H]1Nc1cc(F)c(S(=O)(=O)Nc2nccs2)cc1Cl` [Example 136, 5-chloro-2-fluoro-4-(((1S,2S)-2-(((1-fluorocyclopropyl)methyl)(methyl)amino)cyclohexyl)amino)-N-(thiazol-2-yl)benzenesulfonamide], for which the IC50 came to 0.0301 µM in experiment [1] and 0.493 µM in experiment [2]. The like results for `CN(C)[C@H]1C[C@@H](C(F)(F)F)CC[C@@H]1Nc1cc(F)c(S(=O)(=O)Nc2ccncn2)cc1C1CC1` [Example 178, 5-cyclopropyl-4-(((1S,2S,4S)-2-(dimethylamino)-4-(trifluoromethyl)cyclohexyl)amino)-2-fluoro-N-(pyrimidin-4-yl)benzenesulfonamide] were, in that order, 0.0191 µM and 0.205 µM.

In the case of `N#C[C@@H]1CCN([C@H]2CCCC[C@@H]2Nc2cc(F)c(S(=O)(=O)Nc3nccs3)cc2Cl)C1` [Example 161, 5-Chloro-4-(((1S,2S)-2-((R)-3-cyanopyrrolidin-1-yl)cyclohexyl)amino)-2-fluoro-N-(thiazol-2-yl)benzenesulfonamide formate], the IC50 in experiment [1] turned out to be 0.00303 µM; in experiment [2] it was 0.187 µM. On to `O=S(=O)(Nc1cccc(F)n1)c1cc(Cl)c(N[C@@H]2CCCC[C@H]2N2CC3CC3C2)cc1F` (stereo partly drawn) [Example 106, 4-(((1R,2R)-2-(3-azabicyclo[3.1.0]hexan-3-yl)cyclohexyl)amino)-5-chloro-2-fluoro-N-(6-fluoropyridin-2-yl)benzenesulfonamide], for which the figures for the IC50 in experiment [1] and in experiment [2] were 0.0749 µM and 0.67 µM, respectively. Taken in the same sequence, the figures for `CN(C)[C@H]1CCC(F)C[C@@H]1Nc1cc(F)c(S(=O)(=O)Nc2nccs2)cc1Cl` (stereo partly drawn) [Example 191, 5-chloro-4-(((1S,2S)-2-(dimethylamino)-5-fluorocyclohexyl)amino)-2-fluoro-N-(thiazol-2-yl)benzenesulfonamide formate] were 0.0394 µM and 0.777 µM. Taken in the same sequence, the figures for `CN(C)[C@@H]1C[C@@H]2C[C@@H]2C[C@H]1Nc1cc(F)c(S(=O)(=O)Nc2nccs2)cc1Cl` [Example 215, 5-Chloro-4-(((1R,3R,4R,6S)-4-(dimethylamino)bicyclo[4.1.0]heptan-3-yl)amino)-2-fluoro-N-(thiazol-2-yl)benzenesulfonamide] were 0.286 µM and 2 µM. The like results for `CCCc1cccc([C@H]2CC[C@H](Nc3cc(F)c(S(=O)(=O)Nc4ccncn4)cc3Cl)[C@@H](N(C)C)C2)c1` [Example 223, 5-Chloro-4-(((1S,2S,4S)-2-(dimethylamino)-4-(3-propylphenyl)cyclohexyl)amino)-2-fluoro-N-(pyrimidin-4-yl)benzenesulfonamide] were, in that order, 0.00145 µM and 0.00973 µM. Turning to `CC1(O)CCN([C@H]2CCCC[C@@H]2Nc2cc(F)c(S(=O)(=O)Nc3nccs3)cc2Cl)CC1` [Example 150, 5-chloro-2-fluoro-4-(((1S,2S)-2-(4-hydroxy-4-methylpiperidin-1-yl)cyclohexyl)amino)-N-(thiazol-2-yl)benzenesulfonamide formate], the figures for the IC50 in experiment [1] and in experiment [2] were 0.103 µM and 1.41 µM, respectively. As for `CN1CCC[C@@H]1C(=O)N(C)[C@H]1CCCC[C@@H]1Nc1cc(F)c(S(=O)(=O)Nc2nccs2)cc1Cl` [Example 204, (R)—N-((1S,2S)-2-((2-Chloro-5-fluoro-4-(N-(thiazol-2-yl)sulfamoyl)phenyl)amino)cyclohexyl)-N,1-dimethylpyrrolidine-2-carboxamide], the values for the IC50 in experiment [1] and in experiment [2] were 0.0205 µM and 0.308 µM, respectively. The like results for `CN(C)[C@H]1CCCC[C@@H]1Nc1cc(F)c(S(=O)(=O)Nc2cccc(F)n2)cc1C1CC1` [Example 107, 5-cyclopropyl-4-(((1S,2S)-2-(dimethylamino)cyclohexyl)amino)-2-fluoro-N-(6-fluoropyridin-2-yl)benzenesulfonamide formate] were, in that order, 0.018 µM and 0.137 µM.

For the compound “5-Chloro-4-(((1S,2S)-2-(cyclobutyl(methyl)amino)cyclohexyl)amino)-2-fluoro-N-(thiazol-2-yl)benzenesulfonamide formate [Example 115]”, the figures for the IC50 in experiment [1] and in experiment [2] were 0.00329 µM and 0.018 µM, respectively. With `CN(C1CN(C(=O)C2CC2)C1)[C@H]1CCCC[C@@H]1Nc1cc(F)c(S(=O)(=O)Nc2nccs2)cc1Cl` [Example 155, 5-Chloro-4-(((1S,2S)-2-((1-(cyclopropanecarbonyl)azetidin-3-yl)(methyl)amino)-cyclohexyl)amino)-2-fluoro-N-(thiazol-2-yl)benzenesulfonamide], the half-inhibitory concentration (IC50) in experiment [1] amounted to 0.0123 µM; in experiment [2], 0.13 µM. Taken in the same sequence, the figures for “5-chloro-4-(((1S,2S,4S)-4-(3,5-dichlorophenyl)-2-(dimethylamino)cyclohexyl)amino)-2-fluoro-N-(pyrimidin-4-yl)benzenesulfonamide formate [Example 239]” were 0.0015 µM and 0.00293 µM.
